This is an account of results in BindingDB's records for patent US20250074895 (Blueprint Medicines, 2025).

The target of test [1] is Cyclin-dependent kinase/G2/mitotic-specific cyclin- 1 (Homo sapiens, UniProt P06493). The test is described as follows: Biochemical CDK Inhibition Assay. Here is the method: (§1) nhibitory effects of the compounds of the disclosure were measured in biochemical assays that measure the enzymatic phosphorylation activity of CDK enzyme in complex of Cyclin proteins phosphorylates 7.5 micromolar fluorescently labelled peptide substrate, 5-FAM-QSPKKG-CONH2, (FL-Peptide 18, Perkin Elmer, 760362) in the presence of adenosine-5′-triphosphate (ATP) and varying concentrations of the test compound in 100 mM 2-[4-(2-hydroxyethyl)piperazin-1-yl]ethanesulfonic acid (HEPES), pH 7.5, 10 mM MgCl2, 0.015% Brij-35, 1 mM dithiothreitol (DTT), 1.0% dimethylsulfoxide (DMSO). Assays were performed at 1.0 mM ATP or at ATP Km of the CDK enzymes in complex with Cyclin proteins. Reactions proceeded until between 10% to 20% total peptides were phosphorylated at room temperature (25° C.) and were terminated with 35 mM 2,2′,2″,2′″-(ethane-1,2-diyldinitrilo)tetraacetic acid (EDTA). Product was detected using the Caliper mobility shift detection method where the phosphorylated peptide (product) and substrate were electrophoretically separated and measured. Percent activity was plotted against log concentration of compound and points to generate an apparent IC50. The following CDK enzymes in complex with different cyclin proteins were used in these assays:CDK1/Cyclin B1, GST-tag (BPS, 40454), 1.5 nM used in the assayCDK2/Cyclin E (Eurofins, 14-475), 1.25 nM used in the assays
Cyclin-dependent kinase/G2/mitotic-specific cyclin- 1, sequence (P06493 whole entry): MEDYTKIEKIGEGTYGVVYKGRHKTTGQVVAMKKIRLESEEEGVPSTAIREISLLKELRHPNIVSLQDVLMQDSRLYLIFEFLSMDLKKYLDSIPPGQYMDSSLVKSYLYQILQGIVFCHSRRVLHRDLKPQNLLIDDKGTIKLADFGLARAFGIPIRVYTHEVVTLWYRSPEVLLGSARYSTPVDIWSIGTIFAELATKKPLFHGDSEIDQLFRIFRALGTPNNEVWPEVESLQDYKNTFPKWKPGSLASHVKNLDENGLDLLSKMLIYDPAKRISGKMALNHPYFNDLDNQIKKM
Cyclin-dependent kinase/G2/mitotic-specific cyclin- 1, sequence (P14635 whole entry, further chain): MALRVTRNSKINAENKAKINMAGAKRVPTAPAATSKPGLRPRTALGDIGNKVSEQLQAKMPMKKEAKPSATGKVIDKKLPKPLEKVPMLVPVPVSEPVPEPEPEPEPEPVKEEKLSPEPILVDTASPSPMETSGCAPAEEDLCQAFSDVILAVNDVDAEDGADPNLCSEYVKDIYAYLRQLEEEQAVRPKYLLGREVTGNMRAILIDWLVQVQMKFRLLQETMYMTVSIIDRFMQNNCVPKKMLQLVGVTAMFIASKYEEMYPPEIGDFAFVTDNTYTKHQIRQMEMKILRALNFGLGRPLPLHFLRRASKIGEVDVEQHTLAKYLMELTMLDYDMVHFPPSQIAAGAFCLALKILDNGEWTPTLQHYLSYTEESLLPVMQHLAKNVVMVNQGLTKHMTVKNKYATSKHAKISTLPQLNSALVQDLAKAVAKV

Test [2] addresses Cyclin-dependent kinase 2/G1/S-specific cyclin-E1 (Homo sapiens, UniProt P24941). The experiment in a line: Biochemical CDK Inhibition Assay. Here is the method: as §1

Molecules are shown by their SMILES.

One may read the IC50 as the concentration needed to halve the response being measured. As for `CC1(NC(=O)O[C@@H]2CC[C@H](c3cc(Nc4cnc(C(F)F)cn4)n[nH]3)C2)CC1` [US20250074895, Compound 36], the IC50 in test [1] was below 100 nM; in test [2], below 10 nM.

Regarding `COCc1cnc(Nc2cc([C@H]3CC[C@@H](OC(=O)NC4(C)CC4)C3)[nH]n2)cn1` [US20250074895, Compound 37], the results for the IC50 in test [1] and in test [2] were 300 nM and below 10 nM, respectively.

Turning to `CC1(NC(=O)O[C@@H]2CC[C@H](c3cc(Nc4cccnn4)n[nH]3)C2)CC1` [US20250074895, Compound 38], the IC50 in test [1] was above 500 nM; in test [2], 15 nM.

On to `CC1(NC(=O)O[C@@H]2CC[C@H](c3cc(Nc4ccncn4)n[nH]3)C2)CC1` [US20250074895, Compound 39], for which the IC50 was 300 nM in test [1] and below 10 nM in test [2].

For `Cc1cncnc1Nc1cc([C@H]2CC[C@@H](OC(=O)NC3(C)CC3)C2)[nH]n1` [US20250074895, Compound 40], the IC50 was above 500 nM in test [1] and 15 nM in test [2].

As to `CC1(NC(=O)O[C@@H]2CC[C@H](c3cc(Nc4cnc(Cl)cn4)n[nH]3)C2)CC1` [US20250074895, Compound 41], the figures for the IC50 in test [1] and in test [2] were above 500 nM and below 10 nM, respectively.

In the case of `CC1(NC(=O)O[C@@H]2CC[C@H](c3cc(Nc4nccnn4)n[nH]3)C2)CC1` [US20250074895, Compound 42], the IC50 in test [1] was above 500 nM; in test [2], 25 nM.

`CNc1nc(Nc2cc([C@H]3CC[C@@H](OC(=O)NC4(C)CC4)C3)[nH]n2)cnc1C#N` [US20250074895, Compound 43]: the IC50 is 300 nM in test [1] and below 10 nM in test [2].

For the compound `CN(C)c1nncc(Nc2cc([C@H]3CC[C@@H](OC(=O)NC4(C)CC4)C3)[nH]n2)n1` [US20250074895, Compound 44], the IC50 is below 100 nM in test [1] and below 10 nM in test [2].

In the case of `COc1cnc(Nc2cc([C@H]3CC[C@@H](OC(=O)NC4(C)CC4)C3)[nH]n2)c(C)n1` [US20250074895, Compound 45], the IC50 in test [1] was above 500 nM; in test [2], below 10 nM.

Consider `CC1(NC(=O)O[C@@H]2CC[C@H](c3cc(Nc4ccnc(CO)n4)n[nH]3)C2)CC1` [US20250074895, Compound 46], for which the IC50 in test [1] was 300 nM; in test [2] it was below 10 nM.

Take `Cc1nc(CO)cnc1Nc1cc([C@H]2CC[C@@H](OC(=O)NC3(C)CC3)C2)[nH]n1` [US20250074895, Compound 47]: the IC50 is above 500 nM in test [1] and below 10 nM in test [2].

For `CNc1nccc(Nc2cc([C@H]3CC[C@@H](OC(=O)NC4(C)CC4)C3)[nH]n2)n1` [US20250074895, Compound 48], the IC50 in test [1] is 300 nM; in test [2], below 10 nM.

As for `CC1(C)CCN1C(=O)O[C@@H]1CC[C@H](c2cc(Nc3cnc(CO)cn3)n[nH]2)C1` [US20250074895, Compound 49], the IC50 is below 100 nM in test [1] and below 10 nM in test [2].

Consider `C[C@@H](O)c1cnc(Nc2cc([C@H]3CC[C@@H](OC(=O)N4CCC4(C)C)C3)[nH]n2)cn1` [US20250074895, Compound 51], for which the IC50 is below 100 nM in test [1] and below 10 nM in test [2].

As to `C[C@H](O)c1cnc(Nc2cc([C@H]3CC[C@@H](OC(=O)N4CCC4(C)C)C3)[nH]n2)cn1` [US20250074895, Compound 52], the IC50 in test [1] was below 100 nM; in test [2], below 10 nM.

Turning to `COc1nncc(Nc2cc([C@H]3CC[C@@H](OC(=O)NC4(C)CC4)C3)[nH]n2)n1` [US20250074895, Compound 54], the IC50 in test [1] is below 100 nM; in test [2], below 10 nM.

`CC1(NC(=O)O[C@@H]2CC[C@H](c3cc(Nc4cnc(CO)cn4)n[nH]3)C2)CC1` [US20250074895, Compound 55]: the IC50 in test [1] was below 100 nM; in test [2] it was below 10 nM.

For `CC1(NC(=O)O[C@H]2CC[C@@H](c3cc(Nc4cnccn4)n[nH]3)C2)CC1` [US20250074895, Compound 57], the 50% inhibitory concentration (IC50) in test [1] is below 100 nM; in test [2], below 10 nM.

Regarding `COc1nccc(Nc2cc([C@@H]3CC[C@H](OC(=O)NC4(C)CC4)C3)[nH]n2)n1` [US20250074895, Compound 58], the IC50 in test [1] was below 100 nM; in test [2] it was below 10 nM.
